Measurements taken from patent publication US8207156B2, “Substituted pyrazoline compounds, their preparation and use as medicaments” (Laboratorios Del Dr. Esteve, S.A., priority 2005, dated 2012).

molecular target: recombinant human cannabinoid 1 receptor (CB1) (Homo sapiens, UniProt P21554); experiment: In vitro determination of antagonism to CB1-receptor ([35S]GTPγS binding assay, CHO cell membranes); format: biochemical; details: compound at 1 μM against agonist WIN 55,212-2 (3 nM to 3 μM); effect of Rimonabant (1 μM) defined as 100%
Procedure: Chinese hamster ovary (CHO) cells stably expressing recombinant human cannabinoid 1 receptor (CB1) were cultured in nutrient mixture Ham's F 12 supplemented with 10% heat-inactivated fetal bovine serum, 2 mM L-glutamine, 50 U/ml penicillin, 50 U/ml streptomycin and 0.5 mg/ml geneticin. In order to obtain cells, culture flasks were washed twice with phosphate buffered saline and scraped. Then, cells were collected by centrifugation (200×g, 10 min) and stored dry at −80° C. Cells were homogenized in ice-cold 20 mM HEPES, 10 mM EDTA (pH 7.5) and centrifuged at 40,000×g for 15 min at 4° C. The membrane pellet was resuspended in 20 mM HEPES, 0.1 mM EDTA (pH 7.5) and centrifuged for 15 min at 4° C. The final membrane pellet was resuspended in 20 mM HEPES, 0.1 mM EDTA (pH 7.5), and divided in aliquots and stored at −80° C. until use.
The reaction was performed in 96-well plates. Membranes (15 μg protein/well) were incubated for 60 min at 30° C. in buffer (50 mM HEPES, 100 mM KCl, 5 mM MgCl2,1 mM EDTA, 0.1% wt/vol bovine serum albumin, 5 μM GDP, saponin (10 μg/ml), 0.5 nM [^35S]GTPγS, pH 7.4) with compound at a final concentration of 1 μM in either the absence or presence of agonist WIN 55, 212-2 between 3 nM and 3 μM. The incubation was terminated by rapid filtration through Millipore Multiscreen glass fiber FB, and rinsed two-times with ice-cold assay buffer. Filter plates were dried and 30 μl of scintillation liquid was added. Radioactivity was determined using a Wallac Microbeta Trilux. Each experiment was performed at least in duplicate. A WIN 55, 212-2 dose-response experiment either alone or in the presence of Rimonabant (1 μM) was systematically performed.
The average of basal [^35S]GTPγS binding was subtracted from all binding data. In order to compare the antagonism results from one screening campaign to another one, the difference between the maximal agonist effect of WIN 55, 212-2 alone, and the maximal antagonism effect due to WIN 55, 212-2 plus Rimonabant (1 μM) was defined as 100%.

recombinant human cannabinoid 1 receptor (CB1), sequence (P21554 whole entry): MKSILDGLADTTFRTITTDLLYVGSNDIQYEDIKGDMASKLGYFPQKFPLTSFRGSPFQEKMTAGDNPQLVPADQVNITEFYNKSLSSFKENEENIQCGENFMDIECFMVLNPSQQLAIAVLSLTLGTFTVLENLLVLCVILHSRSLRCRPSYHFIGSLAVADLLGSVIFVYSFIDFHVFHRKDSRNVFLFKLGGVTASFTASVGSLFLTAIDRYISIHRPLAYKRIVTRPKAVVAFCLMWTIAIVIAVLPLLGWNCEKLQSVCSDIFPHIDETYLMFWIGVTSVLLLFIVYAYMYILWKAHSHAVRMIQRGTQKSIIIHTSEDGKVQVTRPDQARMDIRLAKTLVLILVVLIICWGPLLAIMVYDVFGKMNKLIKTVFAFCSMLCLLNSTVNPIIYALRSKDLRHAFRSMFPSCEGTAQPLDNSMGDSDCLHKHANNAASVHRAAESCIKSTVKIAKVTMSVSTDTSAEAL

| SMILES | Antagonism [%] |
| --- | --- |
| Cl.O=C(NN1CCOCC1)C1=NN(c2ccc(Cl)cc2Cl)C(c2ccc(Cl)cc2)C1 (stereo not drawn) [Example 9, 5-(4-Chloro-phenyl)-1-(2,4-dichloro-phenyl)-4,5-dihydro-1H-pyrazole-3-carboxylic acid morpholin-4-ylamide hydrochloride] | 53 |
| O=C(NN1CC2CCCC2C1)C1=NN(c2ccc(Cl)cc2Cl)C(c2ccc(Cl)cc2)C1 (stereo not drawn) [Example 10, 5-(4-Chloro-phenyl)-1-(2,4-dichloro-phenyl)-4,5-dihydro-1H-pyrazole-3-carboxylic acid (hexahydro-cyclopenta[c]pyrrol-2-yl)-amide] | 119 |
| COC(C)(C)[C@@H]1CCCN1NC(=O)C1=NN(c2ccc(Cl)cc2Cl)C(c2ccc(Cl)cc2)C1 (stereo partly drawn) [Example 15, 5-(4-Chloro-phenyl)-1-(2,4-dichloro-phenyl)-4,5-dihydro-1H-pyrazole-3-carboxylic acid [2-(1-methoxy-1-methyl-ethyl)-pyrrolidin-1-yl]-amide] | 6 |
| CC1CCC(NC(=O)C2=NN(c3ccc(Cl)cc3Cl)C(c3ccc(Cl)cc3)C2)CC1 (stereo not drawn) [Example 17, 5-(4-Chloro-phenyl)-1-(2,4-dichloro-phenyl)-4,5-dihydro-1H-pyrazole-3-carboxylic acid (4-methyl-cyclohexyl)-amide] | 65 |
| CCCCCCNC(=O)C1=NN(c2ccc(Cl)cc2Cl)C(c2ccc(Cl)cc2)C1 (stereo not drawn) [Example 20, 5-(4-Chloro-phenyl)-1-(2,4-dichloro-phenyl)-4,5-dihydro-1H-pyrazole-3-carboxylic acid hexylamide] | 61 |
| O=C(C1=NN(c2ccc(Cl)cc2Cl)C(c2ccc(Cl)cc2)C1)N1CCN(C2CCCCC2)CC1 (stereo not drawn) [Example 21, [5-(4-Chloro-phenyl)-1-(2,4-dichloro-phenyl)-4,5-dihydro-1H-pyrazol-3-yl]-(4-cyclohexyl-piperazin-1-yl)-methanone] | 66 |
| O=C(NN1C(=O)c2cccc3cccc(c23)C1=O)C1=NN(c2ccc(Cl)cc2Cl)C(c2ccc(Cl)cc2)C1 (stereo not drawn) [Example 24, 5-(4-Chloro-phenyl)-1-(2,4-dichloro-phenyl)-4,5-dihydro-1H-pyrazole-3-carboxylic acid (1,3-dioxo-1H,3H-benzo[de]isoquinolin-2-yl)-amide] | 27 |
| O=C(NN1Cc2cccc3cccc(c23)C1)C1=NN(c2ccc(Cl)cc2Cl)C(c2ccc(Cl)cc2)C1 (stereo not drawn) [Example 25, 5-(4-Chloro-phenyl)-1-(2,4-dichloro-phenyl)-4,5-dihydro-1H-pyrazole-3-carboxylic acid (1H,3H-benzo[de]isoquinolin-2-yl)-amide] | 7 |
| O=C(NN1CCN(C2CCCC2)CC1)C1=NN(c2ccc(Cl)cc2Cl)C(c2ccc(Cl)cc2)C1 (stereo not drawn) [Example 26, 5-(4-Chloro-phenyl)-1-(2,4-dichloro-phenyl)-4,5-dihydro-1H-pyrazole-3-carboxylic acid (4-cyclopentyl-piperazin-1-yl)-amide] | 52 |
| O=C(NN1CCc2ccccc21)C1=NN(c2ccc(Cl)cc2Cl)C(c2ccc(Cl)cc2)C1 (stereo not drawn) [Example 28, 5-(4-Chloro-phenyl)-1-(2,4-dichloro-phenyl)-4,5-dihydro-1H-pyrazole-3-carboxylic acid (2,3-dihydro-indol-1-yl)-amide] | 63 |
| O=C(NC1CCC1)C1=NN(c2ccc(Cl)cc2Cl)C(c2ccc(Cl)cc2)C1 (stereo not drawn) [Example 30, 5-(4-Chloro-phenyl)-1-(2,4-dichloro-phenyl)-4,5-dihydro-1H-pyrazole-3-carboxylic acid cyclobutylamide] | 54 |
| CCN(C(=O)C1=NN(c2ccc(Cl)cc2Cl)C(c2ccc(Cl)cc2)C1)C1CCCCC1 (stereo not drawn) [Example 33, 5-(4-Chloro-phenyl)-1-(2,4-dichloro-phenyl)-4,5-dihydro-1H-pyrazole-3-carboxylic acid cyclohexyl-ethyl-amide] | 2 |
| O=C(NC1CCCCCCC1)C1=NN(c2ccc(Cl)cc2Cl)C(c2ccc(Cl)cc2)C1 (stereo not drawn) [Example 34, 5-(4-Chloro-phenyl)-1-(2,4-dichloro-phenyl)-4,5-dihydro-1H-pyrazole-3-carboxylic acid cyclooctylamide] | 60 |
| CCCCCC(C)NC(=O)C1=NN(c2ccc(Cl)cc2Cl)C(c2ccc(Cl)cc2)C1 (stereo not drawn) [Example 35, 5-(4-Chloro-phenyl)-1-(2,4-dichloro-phenyl)-4,5-dihydro-1H-pyrazole-3-carboxylic acid (1-methyl-hexyl)-amide] | 68 |
| O=C(NC1CC1)C1=NN(c2ccc(Cl)cc2Cl)C(c2ccc(Cl)cc2)C1 (stereo not drawn) [Example 36, 5-(4-Chloro-phenyl)-1-(2,4-dichloro-phenyl)-4,5-dihydro-1H-pyrazole-3-carboxylic acid cyclopropylamide] | −5 |
| O=C(C1=NN(c2ccc(Cl)cc2Cl)C(c2ccc(Cl)cc2)C1)N1CCCCCCC1 (stereo not drawn) [Example 38, Azocan-1-yl-[5-(4-chloro-phenyl)-1-(2,4-dichloro-phenyl)-4,5-dihydro-1H-pyrazol-3-yl]-methanone] | 45 |
| O=C(C1=NN(c2ccc(Cl)cc2Cl)C(c2ccc(Cl)cc2)C1)N1Cc2ccccc2C1 (stereo not drawn) [Example 39, [5-(4-Chloro-phenyl)-1-(2,4-dichloro-phenyl)-4,5-dihydro-1H-pyrazol-3-yl]-(1,3-dihydro-isoindol-2-yl)-methanone] | 62 |
| O=C(C1=NN(c2ccc(Cl)cc2Cl)C(c2ccc(Cl)cc2)C1)N1CCC1 (stereo not drawn) [Example 40, Azetidin-1-yl-[5-(4-chloro-phenyl)-1-(2,4-dichloro-phenyl)-4,5-dihydro-1H-pyrazol-3-yl]-methanone] | 32 |
| O=C(C1=NN(c2ccc(Cl)cc2Cl)C(c2ccc(Cl)cc2)C1)N1CCC(N2CCCCC2)CC1 (stereo not drawn) [Example 42, [1,4′]Bipiperidinyl-1′-yl-[5-(4-chloro-phenyl)-1-(2,4-dichloro-phenyl)-4,5-dihydro-1H-pyrazol-3-yl]-methanone] | −13 |
| CN1CCN(C(=O)C2=NN(c3ccc(Cl)cc3Cl)C(c3ccc(Cl)cc3)C2)CC1 (stereo not drawn) [Example 43, [5-(4-Chloro-phenyl)-1-(2,4-dichloro-phenyl)-4,5-dihydro-1H-pyrazol-3-yl]-(4-methyl-piperazin-1-yl)-methanone] | 25 |
| CCOC(=O)N1CCN(C(=O)C2=NN(c3ccc(Cl)cc3Cl)C(c3ccc(Cl)cc3)C2)CC1 (stereo not drawn) [Example 44, 4-[5-(4-Chloro-phenyl)-1-(2,4-dichloro-phenyl)-4,5-dihydro-1H-pyrazole-3-carbonyl]-piperazine-1-carboxylic acid ethyl ester] | 39 |
| O=C(C1=NN(c2ccc(Cl)cc2Cl)C(c2ccc(Cl)cc2)C1)N1CCc2ccccc2C1 (stereo not drawn) [Example 45, [5-(4-Chloro-phenyl)-1-(2,4-dichloro-phenyl)-4,5-dihydro-1H-pyrazol-3-yl]-(3,4-dihydro-1H-isoquinolin-2-yl)-methanone] | 59 |
| CC1CCCCN1C(=O)C1=NN(c2ccc(Cl)cc2Cl)C(c2ccc(Cl)cc2)C1 (stereo not drawn) [Example 46, [5-(4-Chloro-phenyl)-1-(2,4-dichloro-phenyl)-4,5-dihydro-1H-pyrazol-3-yl]-(2-methyl-piperidin-1-yl)-methanone] | 53 |
| CN(C(=O)C1=NN(c2ccc(Cl)cc2Cl)C(c2ccc(Cl)cc2)C1)C1CCCCC1 (stereo not drawn) [Example 47, 5-(4-Chloro-phenyl)-1-(2,4-dichloro-phenyl)-4,5-dihydro-1H-pyrazole-3-carboxylic acid cyclohexyl-methyl-amide] | 28 |
| O=C(NC1CCCCCCCCCCC1)C1=NN(c2ccc(Cl)cc2Cl)C(c2ccc(Cl)cc2)C1 (stereo not drawn) [Example 49, 5-(4-Chloro-phenyl)-1-(2,4-dichloro-phenyl)-4,5-dihydro-1H-pyrazole-3-carboxylic acid cyclododecylamide] | 14 |
| CC(C)N(C(=O)C1=NN(c2ccc(Cl)cc2Cl)C(c2ccc(Cl)cc2)C1)C(C)C (stereo not drawn) [Example 50, 5-(4-Chloro-phenyl)-1-(2,4-dichloro-phenyl)-4,5-dihydro-1H-pyrazole-3-carboxylic acid diisopropylamide] | 18 |
| CN(C)C(=O)C1=NN(c2ccc(Cl)cc2Cl)C(c2ccc(Cl)cc2)C1 (stereo not drawn) [Example 51, 5-(4-Chloro-phenyl)-1-(2,4-dichloro-phenyl)-4,5-dihydro-1H-pyrazole-3-carboxylic acid dimethylamide] | 21 |
